Data reported in ChEMBL document CHEMBL5625265, “Exploring 2-methyl-substituted vitamin K3 derivatives with potent inhibitory activity against the 3CL protease of SARS-CoV-2” (Bioorg Med Chem Lett, 2024).
The source made the active and inactive calls. No cut-off for these calls is given here.

Assays:
[1] = target: Replicase polyprotein 1ab (Severe acute respiratory syndrome coronavirus 2) (UniProt P0DTD1); assay: Inhibition of SARS-CoV-2 3CL protease at 10 uM using Dabcyl-KTSAVLQSGFRKME-Edans as a substrate preincubated for 30 mins followed by substrate addition and measured after for 4 hrs by FRET assay relative to control; conditions: time 4.5 hrs
[2] = target: Replicase polyprotein 1ab (Severe acute respiratory syndrome coronavirus 2, UniProt P0DTD1); assay: Inhibition of SARS-CoV-2 3CL protease using Dabcyl-KTSAVLQSGFRKME-Edans as a substrate preincubated for 30 mins followed by substrate addition and measured after for 4 hrs by FRET assay

Row | SMILES | inhibition [1] | IC50 [2] [µM]
1 | O=C1C=C(C2CC2)C(=O)c2ccccc21 | Active | –
2 | CC(=O)CCC1=CC(=O)c2ccccc2C1=O | Active | –
3 | O=C1C=C(C2CCC2)C(=O)c2ccccc21 | Active | –
4 | CC1=CC(=O)c2ccccc2C1=O | 40% | –
5 | O=C1C=C(Oc2ccccc2)C(=O)c2ccccc21 | Active | –
6 | CCSC1=CC(=O)c2ccccc2C1=O | Active | 5.35
7 | O=C1C=C(Sc2ccccc2)C(=O)c2ccccc21 | Active | 0.964
